How the values were obtained:
Assay in all cases: MIC, antibacterial and synergistic activity
Type in all cases: cell-based
E. coli JMI 10768 [1] = conditions: E. coli JMI 10768 (CTX-M15 (Weak ESBL)); Meropenem + inhibitor at 4 µg/mL
K. pneumo JMI 4088 [2] = conditions: K. pneumo JMI 4088 (KPC-3 (Cpase)); substance alone
P. aerug JMI 2686 = P. aerug JMI 2686 (KPC-2 (Cpase)); substance alone
K. pneumo JMI 2674 [3] = conditions: K. pneumo JMI 2674 (CTX-M15 (ESBL)); substance alone
K. pneumo JMI 2673 = K. pneumo JMI 2673 (CTX-M14 (ESBL)); substance alone
P. aerug JMI 149 = P. aerug JMI 149 (Bla+++D+)
K.pneumo JMI 4109 [4] = conditions: K.pneumo JMI 4109 (SHV-1, SHV-12); substance alone
E. cloacae JMI 36 = E. cloacae JMI 36 (P99)
E. coli JMI 11103 = test system: E. coli JMI 11103
E. coli JMI 10770 [5] = conditions: Escherichia coli, JMI10770; E. coli JMI 10770 (CTX-M15 (Hyper ESBL)); substance alone
E. coli ATCC 25922 = E. coli ATCC 25922 (Wt)
E. coli JMI 10767 [6] = conditions: E. coli JMI 10767 (Wt)
Experimental: (§1) In the Tables 10 - 12, compounds herein disclosed were tested in combination with various antibiotics against metallo β-lactamase producing bacteria. Table 3: Synergy of the inhibitor Ex. 1 (4 µg/mL) in combination with antibiotics

E. coli JMI 10768 [7] = conditions: E. coli JMI 10768 (CTX-M15 (Weak ESBL))
Experimental: as §1

K. pneumo JMI 2674 [8] = conditions: K. pneumo JMI 2674 (CTX-M15 (ESBL))
Experimental: as §1

K.pneumo JMI 4109 [9] = conditions: K.pneumo JMI 4109 (SHV-1, SHV-12)
Experimental: as §1

E. coli JMI 2671 = test system: E. coli JMI 2671
Experimental: as §1

K. pneumo JMI 2699 = K. pneumo JMI 2699 (VIM-1, CTX-M3)
Experimental: as §1

K. pneumo JMI 4088 [10] = conditions: K. pneumo JMI 4088 (KPC-3 (Cpase))
Experimental: as §1

E. coli JMI 10770 [11] = conditions: E. coli JMI 10770 (CTX-M15 (Hyper ESBL))
Experimental: as §1

E. coli JMI 2665 = test system: E. coli JMI 2665
Experimental: as §1

E. coli JMI 10767 [12] = conditions: E. coli JMI 10767 (Wt); remark: listed apart in the source
K. pneumo JMI 4106 = K. pneumo JMI 4106 (KPC-3, TEM-1, SHV-12, SHV-141)
K. pneumo JMI 2681 = K. pneumo JMI 2681 (Oxa-48 (Cpase))
[13] = Aztreonam + inhibitor at 4 µg/mL
[14] = Ceftazidime + inhibitor at 4 µg/mL
[15] = Meropenem + inhibitor at 4 µg/mL

O=C(NNC(=O)[C@H]1CC[C@H]2CN1C(=O)N2OS(=O)(=O)O)C1CNC1 (stereo in doubt) [Ex. 9, (2R,5S)-N'-(azetidin-3-ylcarbonyl)-7-oxo-6-(sulfooxy)-1,6-diazabicyclo[3.2.1]octane-2-carbohydrazide]
8 µg/mL: MIC (E. coli JMI 2665; Escherichia coli, JMI2665) | MIC (K. pneumo JMI 4106; substance alone, read-out: MIC)
1 µg/mL: MIC Ceftazidime + inhibitor (E. coli JMI 2671; E. coli JMI 2671 (VIM-19 (Cpase)), Ceftazidime + inhibitor at 4 µg/mL)
≤0.06 µg/mL: MIC Aztreonam + inhibitor (E. coli JMI 11103; E. coli JMI 11103 (CTX-M15 (Intermediate ESBL)), Aztreonam + inhibitor at 4 µg/mL) | MIC Aztreonam + inhibitor (E. coli ATCC 25922; [13]) | MIC Aztreonam + inhibitor (E. coli JMI 10767 [6]; [13]) | MIC Aztreonam + inhibitor (E. coli JMI 10768 [7]; [13]) | MIC Aztreonam + inhibitor (K.pneumo JMI 4109 [9]; [13]) | MIC Aztreonam + inhibitor (E. coli JMI 2671; E. coli JMI 2671 (VIM-19 (Cpase)), Aztreonam + inhibitor at 4 µg/mL) | MIC Aztreonam + inhibitor (E. coli JMI 10770 [11]; [13]) | MIC Aztreonam + inhibitor (E. coli JMI 2665; E. coli JMI 2665 (CMY-2 (Plasmid Cpase)), Aztreonam + inhibitor at 4 µg/mL)
0.5 µg/mL: MIC Meropenem + inhibitor (P. aerug JMI 149; [15]) | MIC Meropenem + inhibitor (K. pneumo JMI 2699; [15]) | MIC Aztreonam + inhibitor (K. pneumo JMI 4088 [10]; [13]) | MIC Aztreonam + inhibitor (K. pneumo JMI 4106; [13])
0.06 µg/mL: MIC Meropenem + inhibitor (E. cloacae JMI 36; [15]) | MIC Meropenem + inhibitor (K. pneumo JMI 2674 [8]; [15]) | MIC Aztreonam + inhibitor (K. pneumo JMI 2699; [13]) | MIC Meropenem + inhibitor (K. pneumo JMI 4088 [10]; [15])
4 µg/mL: MIC (K.pneumo JMI 4109 [4])
≤0.03 µg/mL: MIC Meropenem + inhibitor (E. coli JMI 10768 [1]) | MIC Meropenem + inhibitor (E. coli JMI 11103; E. coli JMI 11103 (CTX-M15 (Intermediate ESBL)), Meropenem + inhibitor at 4 µg/mL) | MIC Meropenem + inhibitor (E. coli ATCC 25922; [15]) | MIC Meropenem + inhibitor (K.pneumo JMI 4109 [9]; [15]) | MIC Meropenem + inhibitor (E. coli JMI 10770 [11]; [15]) | MIC Meropenem + inhibitor (E. coli JMI 2665; E. coli JMI 2665 (CMY-2 (Plasmid Cpase)), Meropenem + inhibitor at 4 µg/mL) | MIC Meropenem + inhibitor (E. coli JMI 10767 [12]; [15])
>4 µg/mL: MIC Aztreonam + inhibitor (P. aerug JMI 149; [13])
>2 µg/mL: MIC Meropenem + inhibitor (K. pneumo JMI 2681; [15])
0.125 µg/mL: MIC Aztreonam + inhibitor (K. pneumo JMI 2674 [8]; [13]) | MIC Meropenem + inhibitor (E. coli JMI 2671; E. coli JMI 2671 (VIM-19 (Cpase)), Meropenem + inhibitor at 4 µg/mL) | MIC Meropenem + inhibitor (K. pneumo JMI 4106; [15])
≤0.25 µg/mL: MIC Ceftazidime + inhibitor (E. cloacae JMI 36; [14]) | MIC Ceftazidime + inhibitor (E. coli JMI 11103; E. coli JMI 11103 (CTX-M15 (Intermediate ESBL)), Ceftazidime + inhibitor at 4 µg/mL) | MIC Ceftazidime + inhibitor (E. coli ATCC 25922; [14]) | MIC Ceftazidime + inhibitor (E. coli JMI 10767 [6]; [14]) | MIC Ceftazidime + inhibitor (E. coli JMI 10768 [7]; [14]) | MIC Ceftazidime + inhibitor (K. pneumo JMI 2674 [8]; [14]) | MIC Ceftazidime + inhibitor (K.pneumo JMI 4109 [9]; [14]) | MIC Ceftazidime + inhibitor (K. pneumo JMI 2699; [14]) | MIC Ceftazidime + inhibitor (K. pneumo JMI 4088 [10]; [14]) | MIC Ceftazidime + inhibitor (E. coli JMI 10770 [11]; [14]) | MIC Ceftazidime + inhibitor (E. coli JMI 2665; E. coli JMI 2665 (CMY-2 (Plasmid Cpase)), Ceftazidime + inhibitor at 4 µg/mL) | MIC Ceftazidime + inhibitor (K. pneumo JMI 4106; [14]) | MIC Ceftazidime + inhibitor (K. pneumo JMI 2681; [14])
0.25 µg/mL: MIC Aztreonam + inhibitor (E. cloacae JMI 36; [13]) | MIC Aztreonam + inhibitor (K. pneumo JMI 2681; [13])
16 µg/mL: MIC (K. pneumo JMI 4088 [2]) | MIC (P. aerug JMI 2686) | MIC Ceftazidime + inhibitor (P. aerug JMI 149; [14]) | MIC (P. aerug JMI 149; substance alone, read-out: MIC)
> 16 µg/mL: MIC (K. pneumo JMI 2674 [3]) | MIC (K. pneumo JMI 2673) | MIC (E. cloacae JMI 36; Enterobacter cloacae, JMI36, substance alone, read-out: MIC) | MIC (E. coli JMI 11103; Escherichia coli, JMI11103, E. coli JMI 11103 (CTX-M15 (Intermediate ESBL)), substance alone) | MIC (E. coli JMI 10770 [5]) | MIC (E. coli ATCC 25922; Escherichia coli, ATCC25922, substance alone) | MIC (E. coli JMI 10768 [7]; Escherichia coli, JMI10768, substance alone) | MIC (E. coli JMI 2671; Escherichia coli, JMI2671, E. coli JMI 2671 (VIM-19 (Cpase)), substance alone) | MIC (K. pneumo JMI 2699; substance alone, read-out: MIC) | MIC (E. coli JMI 10767 [12]; Escherichia coli, JMI10767, substance alone) | MIC (K. pneumo JMI 2681; substance alone, read-out: MIC)

Source: EP2931723B1, “NEW BICYCLIC COMPOUNDS AND THEIR USE AS ANTIBACTERIAL AGENTS AND -LACTAMASE INHIBITORS” (Fedora Pharmaceuticals Inc., priority 2012, dated 2014)
